Reference: patent US20240050735A1, “SYSTEMS AND METHODS FOR TREATING AND INHIBITING WOUND INFECTIONS” (priority 2020, published 2024)
“And” between values parts separate entries of the source, which are not always exact repeats. Identical values can stand only once. Counter-ions that a name gives are not always drawn. Like-named read-outs stand apart in the source and are kept apart here.

Experiments:
planktonic MRSA = assay: Minimum inhibitory concentration (MIC) to planktonic MRSA; assay type: cell-based, Methicillin-resistant S. aureus (MRSA) USA300; conditions: Staphylococcus aureus; planktonic MRSA cells, 24 hours, OD600
Description: Methicillin-resistant S. aureus (MRSA) USA300 strain was used in this study. The planktonic bacteria were cultured in LB medium. Vancomycin hydrochloride (Apexbio Technology LLC, Houston, Tex., USA) and daptomycin (Combi-Blocks, San Diago Calif., USA) were used to treat MRSA biofilm. The minimum inhibitory concentration (MIC) of vancomycin hydrochloride to planktonic MRSA cells was determined as 1.2 μg mL^−1 (see FIG. 17B), which was in consistent with the results reported previously.
MRSA bacteria was cultured in LB media in a 37° C. water shaking bath overnight to reach the concentration of 1×10^8 CFU mL^−1. Then, they were diluted to 10^5 CFU mL^−1 in 96-well plates by adding different concentrations of VAN solutions. After incubation for 24 hours without shaking, MIC of VAN to inhibit MRSA growth was measured by a Biotek Synergy H1 hybrid multi-mode microplate reader (BioTek, Winooski, Vt., USA) at OD600. To evaluate the killing time of VAN to bacteria in stationary phase (1×10^8 CFU mL^−1), VAN powder was added to bacteria solution to obtain concentration of 1 mg mL^−1, 3 mg mL^−1, 5 mg mL^−1, and 10 mg mL^−1, respectively, while remaining MRSA concentration of 1×10^8 CFU mL^−1. After incubation in a 37° C. water bath for 1 day, 2 days, 3 days and 4 days, the CFU of MRSA cells was tested by the standard plate spread counting assay, respectively. […]

C. difficle = conditions: cited from earlier work
MRSA biofilm = conditions: cited from earlier work
[1] = assay type: in vitro ADME; conditions: for permeation coefficient (Pc): 1 mg mL^−1 VAN; for accumulated concentration in wound tissue: 1 mg mL^−1 VAN loaded
Description: Investigations were also performed to determine the iontophoretic antibiotic delivery efficiency of the HIC-based biofilm treatment system 100 using high current intensities. These investigations included an ex vivo antibiotic delivery study using the same MRSA biofilm-infected porcine skin wound model as in the previous section. Vancomycin (VAN) was used here as a model drug, since it is the FDA-approved antibiotic and is the clinical gold standard for combating S. aureus infections.
First the VAN delivery efficiency was tested at different current intensities (from 0 mA cm^−2 (passive diffusion) to 75 mA cm^−2) applied by the HIC-based biofilm treatment system 100 for 1 hour. The drug/buffer chamber 114 of the working device 104 was loaded with 1 mg mL^−1 VAN in this study. The anode side was used as the working device 104 because VAN required anodal iontophoresis. The accumulated concentration of VAN in biofilm infected skin wound was measured immediately after iontophoresis using high performance liquid chromatography (HPLC). […] When 75 mA cm^−2 was used, the VAN concentration in wound tissue increased to 4.5±0.52 mg g^−1. The VAN concentration in wound tissue after passive diffusion, 0.5 mA cm^−2, and 19 mA cm^−2 iontophoresis were also measured. However, they could not be distinguished from the background interference of the residual biofilm components, so no quantitative results were obtained (data not shown). Importantly, the VAN concentration delivered by 75 mA cm^−2 iontophoresis for 1 hour exceeded the minimal biofilm eradication concentration (MBEC) of VAN reported for MRSA biofilm, which was 4 mg g^−1. The ability to deliver a lethal antibiotic concentration into biofilm-infected wounds within a short period of time was critical for biofilm treatment as it would minimize the chance for bacteria to develop adaptive tolerance.
The fetal pig skin samples (approximately 30×30 mm) were immersed in 10% (v/v) bleach for 5 minutes after hair removal. Then, skin samples were sterilized in 70% ethanol for 30 minutes. The surface of skin sample was further cleaned by 10% povidone-iodine and 70% isopropanol to prevent contamination. A 6-mm disposable biopsy punch was used to create an excisional wound. Samples were put into sterile 10-cm petri-dishes filled with sterile PBS (6 mL). The wound was then inoculated with 1×10^8 CFU mL^−1 MRSA bacteria solution (20 μL). The bacteria were allowed to grow in a 37° C. Heratherm™ compact microbiological incubator (ThermoFischer Scientific™, Waltham, Mass., USA) for 48 hours to form mature biofilms.
To evaluate the antibiotic delivery efficacy of VAN by high-intensity current, biofilm infected fetal pig skin wound was used. The DAP test setup was same as that of VAN, except no PBS chamber 122 was used. Instead, the inner surface of the skin wound contacted directly to the hydrogel 120 of the counter device 106. To evaluate the effect of electrical current intensity on the drug delivery efficacy, different current intensities from 0 to 75 mA cm^−2 were applied. To evaluate the effect of loading concentration of antibiotics, different concentrations of VAN and DAP from 1 mg mL^−1 to 10 mg mL^−1 were used. Since VAN is […] and DAP is negatively charged under physiological environment, anode HIC-based device was placed facing biofilm for VAN iontophoresis, and cathode HIC-based device was placed facing biofilm for DAP iontophoresis. Samples were collected immediately after different treatments. The concentrations of antibiotics delivered into skin wound samples were measured by high-performance liquid chromatography (HPLC). The permeation coefficient (Pc, cm s^−1) was then calculated (Pc=J/C, where J is antibiotic delivery flux in tissue samples (μg (cm^2s)^−1, C is the loading concentration of antibiotic solution (μg m L^−1)). […]

[2] = test system: S. aureus persister cells; conditions: even at 100×MIC; cited from earlier work

CN[C@H](CC(C)C)C(=O)N[C@H]1C(=O)N[C@@H](CC(N)=O)C(=O)N[C@H]2C(=O)N[C@H]3C(=O)N[C@H](C(=O)N[C@H](C(=O)O)c4cc(O)cc(O)c4-c4cc3ccc4O)[C@H](O)c3ccc(c(Cl)c3)Oc3cc2cc(c3O[C@@H]2O[C@H](CO)[C@@H](O)[C@H](O)[C@H]2O[C@H]2C[C@](C)(N)[C@H](O)[C@H](C)O2)Oc2ccc(cc2Cl)[C@H]1O [VAN, Vancomycin hydrochloride]
MIC (planktonic MRSA): 1.2 µg/mL
concentration at which antibacterial activity starts to decrease (paradoxical effect) (C. difficle): 64 ×MIC
minimal biofilm eradication concentration (MBEC) (MRSA biofilm): 4 mg/g
conventional Pc lower than Pc by 75 mA cm^−2 HIC iontophoresis ([1]; 0.31 mA cm^−2 conventional vs 75 mA cm^−2 HIC): 980 times
permeation coefficient (Pc) ([1]; 38 mA cm^−2, 1 hour): 112.0±20.97 ×10^−6 cm s^−1
accumulated concentration in wound tissue ([1]; 38 mA cm^−2, 1 hour): 2.5 ± 0.32 mg/g
permeation coefficient (Pc) ([1]; 75 mA cm^−2, 1 hour): 216.5±18.96 ×10^−6 cm s^−1
accumulated concentration in wound tissue ([1]; 75 mA cm^−2, 1 hour, hydrochloride): 4.5 ± 0.52 mg/g and 4.5 mg/g
concentration in wound tissue ([1]; 75 mA cm^−2, 1 hour, 5 mg mL^−1 VAN loaded): more than 16 mg g^−1
concentration in wound tissue ([1]; 75 mA cm^−2, 1 hour, 10 mg mL^−1 VAN loaded): more than 16 mg g^−1
killing of S. aureus persister cells [2]: not capable of killing
